The target of assay [1] is Annexin A2 (Homo sapiens) (UniProt P07355). Kind of assay: Binding affinity to annexin 2 assessed as inhibition of protein-lipid interaction after 15 mins by coomassine blue staining.
Target sequence in this assay (P07355 whole entry): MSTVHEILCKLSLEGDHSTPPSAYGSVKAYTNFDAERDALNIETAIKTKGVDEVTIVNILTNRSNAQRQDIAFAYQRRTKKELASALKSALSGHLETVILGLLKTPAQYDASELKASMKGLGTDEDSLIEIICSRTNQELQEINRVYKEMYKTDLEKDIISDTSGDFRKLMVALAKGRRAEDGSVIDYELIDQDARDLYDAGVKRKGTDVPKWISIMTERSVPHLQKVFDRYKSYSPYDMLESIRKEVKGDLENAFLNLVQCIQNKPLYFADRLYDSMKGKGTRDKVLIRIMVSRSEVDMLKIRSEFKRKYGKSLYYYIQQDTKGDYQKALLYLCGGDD
Assay [2] has the same target. Kind of assay: Inhibition of annexin 2-mediated liposome aggregation after 15 mins by spectrophotometry.
Target sequence in this assay (P07355 whole entry): as above
Assay [3] shares this target. Nature of the assay: Induction of annexin 2-mediated F-actin disruption in human HepG2 cells at 4 uM after 2 hrs by confocal laser scanning microscopy. The format is cell-based.
Target sequence in this assay (P07355 whole entry): as above
Assay [4] has the same target. Kind of assay: Effect on human annexin 2-mediated F-actin bundling assessed as increase in light scattering after 1 hr by SDS-PAGE.
Target sequence in this assay (P07355 whole entry): as above
For assay [5], the system named is HepG2. Kind of assay: Cytotoxicity against human HepG2 cells harboring annexin 2 assessed as rapid shape change and rounding up at 4 uM after 2 hrs. The format is functional, cell-based.
Assay [6] concerns the target T1, Annexin A1 (Bos taurus) (UniProt P46193).
T1 sequence (whole entry): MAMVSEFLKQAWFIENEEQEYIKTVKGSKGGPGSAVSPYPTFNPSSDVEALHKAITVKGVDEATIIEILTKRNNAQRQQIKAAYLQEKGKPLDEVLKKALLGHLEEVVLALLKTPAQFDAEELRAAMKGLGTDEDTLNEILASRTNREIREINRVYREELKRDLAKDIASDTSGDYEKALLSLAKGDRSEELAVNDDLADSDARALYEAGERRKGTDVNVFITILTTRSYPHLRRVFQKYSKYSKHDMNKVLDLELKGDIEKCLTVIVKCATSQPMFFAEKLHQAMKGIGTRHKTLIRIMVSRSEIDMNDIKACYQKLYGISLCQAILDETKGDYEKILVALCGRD
Kind of assay: Displacement of biotinyl-withaferin from bovine lung annexin 1 at 10 uM by chemiluminescence assay.

Assay [7] deals with CHP100. Kind of assay: Cytotoxicity against human CHP100 cells assessed as viable cell after 24 hrs by MTT assay. The format is functional, cell-based. For orientation: Tetrazolium assays rely on reduction of a dye to a coloured formazan, in cell work by metabolically active cells.
The target in assay [8] is Annexin A2 (Homo sapiens) (UniProt P07355). Kind of assay: Displacement of biotinyl-withaferin from annexin-2 in human MCF10A at 0.4 to 4 uM by chemiluminescence assay.
Target sequence in this assay (P07355 whole entry): as the sequence (P07355 whole entry) above
For assay [9] the target is unchanged. Nature of the assay: Displacement of biotinyl-withaferin from annexin-2 in human CHP100 at 0.4 to 4 uM by chemiluminescence assay.
Target sequence in this assay (P07355 whole entry): as the sequence (P07355 whole entry) above
Assay [10] addresses T2, Annexin A5 (Bos taurus) (UniProt P81287).
T2 sequence (whole entry): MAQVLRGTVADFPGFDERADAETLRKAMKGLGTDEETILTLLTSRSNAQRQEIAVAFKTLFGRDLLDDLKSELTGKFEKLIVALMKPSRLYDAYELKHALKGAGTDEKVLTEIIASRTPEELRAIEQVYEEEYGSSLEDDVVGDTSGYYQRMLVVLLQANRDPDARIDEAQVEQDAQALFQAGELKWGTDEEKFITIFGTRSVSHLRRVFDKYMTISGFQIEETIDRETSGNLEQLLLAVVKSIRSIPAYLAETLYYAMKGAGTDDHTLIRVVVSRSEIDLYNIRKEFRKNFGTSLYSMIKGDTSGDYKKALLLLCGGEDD
Nature of the assay: Displacement of biotinyl-withaferin from bovine lung annexin 5 at 10 uM by chemiluminescence assay.

The species entered for assay [11] is Homo sapiens. Nature of the assay: Effect on human F-actin bundling assessed as light scattering after 1 hr by SDS-PAGE.
In assay [12] the target is Annexin A2 (Bos taurus) (UniProt P04272). Nature of the assay: Displacement of biotinyl-withaferin from bovine lung annexin-2 at 0.4 uM by chemiluminescence assay.
In assay [13] the test system is HepG2. Kind of assay: Cytotoxicity against human HepG2 cells harboring annexin 2 after 48 hrs by MTT assay. Format: functional, cell-based.
Assay [14] deals with PC-3M. Kind of assay: Cytotoxicity against human PC3M cells assessed as viable cell after 24 hrs by MTT assay. The format is functional, cell-based.
Assay [15] concerns the target T3, Annexin A4 (Bos taurus) (UniProt P13214).
T3 sequence (whole entry): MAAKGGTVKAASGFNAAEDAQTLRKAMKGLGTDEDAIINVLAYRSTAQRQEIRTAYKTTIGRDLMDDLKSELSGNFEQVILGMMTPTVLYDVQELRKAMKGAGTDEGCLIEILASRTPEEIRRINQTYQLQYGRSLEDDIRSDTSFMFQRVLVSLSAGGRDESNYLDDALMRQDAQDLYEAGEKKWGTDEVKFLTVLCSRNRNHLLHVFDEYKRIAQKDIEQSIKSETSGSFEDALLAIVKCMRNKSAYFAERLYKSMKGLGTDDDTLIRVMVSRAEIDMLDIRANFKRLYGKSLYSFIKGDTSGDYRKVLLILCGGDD
Kind of assay: Displacement of biotinyl-withaferin from bovine lung annexin 4 at 10 uM by chemiluminescence assay.

For assay [16], the target named is Annexin A2 (Homo sapiens) (UniProt P07355). Kind of assay: Induction of annexin 2-mediated F-actin disruption in human WI38 cells at 4 uM after 2 hrs by confocal laser scanning microscopy. Format: cell-based. The conditions noted are these: WI-38.
Assay [17] deals with Annexin A2 (Bos taurus) (UniProt P04272). Nature of the assay: Displacement of biotinyl-withaferin from bovine lung annexin 2 at 10 uM by chemiluminescence assay.
Assay [18] relates to WI-38. Nature of the assay: Cytotoxicity against human WI38 cells assessed as cell viability pretreated after 16 hrs by MTT assay in presence of 0.5 uM cytochalasin B. The format is functional, cell-based.
For assay [19], the target named is Annexin A2 (Homo sapiens) (UniProt P07355). Nature of the assay: Induction of annexin-2-mediated cytotoxicity in human MCF10A cells assessed as cell morphology at 4 uM after 2 hrs by scanning electron microscopy. The conditions noted are these: MCF-10A.
Target sequence in this assay (P07355 whole entry, looked up): as the sequence (P07355 whole entry) above
Assay [20] shares this target. Kind of assay: Induction of annexin 2-mediated cytoskeleton aggregate accumulation in human HepG2 cells at 4 uM after 2 hrs by confocal laser scanning microscopy. Format: cell-based.
The test system of assay [21] is WI-38. Kind of assay: Cytotoxicity against human WI38 cells assessed as cell viability pretreated after 16 hrs by MTT assay in presence of 1 uM cytochalasin B. Format: functional, cell-based.
Assay [22] addresses T4, Annexin A6 (Bos taurus) (UniProt P79134).
T4 sequence (whole entry): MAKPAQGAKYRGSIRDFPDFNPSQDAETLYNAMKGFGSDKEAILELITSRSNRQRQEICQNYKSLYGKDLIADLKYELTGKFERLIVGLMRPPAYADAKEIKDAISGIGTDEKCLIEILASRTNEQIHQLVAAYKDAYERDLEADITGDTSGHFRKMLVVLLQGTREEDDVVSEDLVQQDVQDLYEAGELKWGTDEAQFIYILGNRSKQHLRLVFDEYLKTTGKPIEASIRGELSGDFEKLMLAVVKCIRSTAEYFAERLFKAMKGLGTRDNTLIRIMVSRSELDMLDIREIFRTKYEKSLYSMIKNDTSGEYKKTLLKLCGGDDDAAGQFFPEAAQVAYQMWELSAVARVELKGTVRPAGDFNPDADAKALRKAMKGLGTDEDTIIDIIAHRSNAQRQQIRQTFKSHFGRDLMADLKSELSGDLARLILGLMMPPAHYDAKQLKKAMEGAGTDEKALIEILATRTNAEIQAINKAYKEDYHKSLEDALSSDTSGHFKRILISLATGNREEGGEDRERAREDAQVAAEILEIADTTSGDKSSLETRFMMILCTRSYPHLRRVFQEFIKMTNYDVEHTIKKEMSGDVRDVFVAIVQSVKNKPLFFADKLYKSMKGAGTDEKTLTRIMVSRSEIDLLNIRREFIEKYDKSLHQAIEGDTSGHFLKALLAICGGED
Kind of assay: Displacement of biotinyl-withaferin from bovine lung annexin 6 at 10 uM by chemiluminescence assay.

Assay [23] is filed under the species Homo sapiens. Nature of the assay: Effect on human F-actin pellet formation after 1 hr by SDS-PAGE.
Assay [24] concerns the target Annexin A2 (Bos taurus) (UniProt P04272). Kind of assay: Displacement of biotinyl-withaferin from bovine lung annexin-2 at 40 uM by chemiluminescence assay.
For assay [25] the target is unchanged. Nature of the assay: Displacement of biotinyl-withaferin from bovine lung annexin-2 at 4 uM by chemiluminescence assay.
The target of assay [26] is Annexin A2 (Homo sapiens) (UniProt P07355). Kind of assay: Induction of annexin-2-mediated cytotoxicity in human CHP100 cells at 4 uM after 2 hrs by MTT assay. The format is cell-based.

Calls of active or inactive are those of the source. No cut-off for these calls is given here.

Annexin A2 (Bos taurus), sequence (P04272 whole entry): as the sequence (P07355 whole entry) above, with A66E, I160V, P223C, D230E, R245K, R309K counted along it

On to `CCN1C(=O)C=CC1=O`, for which, in [1], the outcome was Active. Besides, the inhibition result in assay [2] is “Active”.

`CC1=C(CO)C(=O)O[C@@H]([C@@H](C)[C@H]2CC[C@H]3[C@@H]4C[C@H]5O[C@]56[C@@H](O)C=CC(=O)[C@]6(C)[C@H]4CC[C@]23C)C1`: the outcome in assay [3], in [4], in assay [5], in assay [7], in assay [8] and in assay [9] was Active. The outcome in [12], in assay [14], in assay [16], in [17], in [20] and in [24] was Active. In addition, the result in [25] was Active. The result in [6], in [10], in assay [11], in assay [15], in assay [1] and in assay [18] was inactive. Further, the result in assay [19], in assay [21], in assay [22] and in [23] was inactive. Also, the Activity entry in assay [13] was “Toxic”. Moreover, the inhibition result in [2] is “inactive”.

On to `CC1=C(C)C(=O)O[C@H]([C@](C)(O)[C@H]2CC[C@H]3[C@@H]4C[C@H]5O[C@]56[C@@H](O)C=CC(=O)[C@]6(C)[C@H]4CC[C@]23C)C1`, for which the outcome in assay [26], in [19] and in [24] was inactive.

These data come from ChEMBL document CHEMBL1221176, “Actin microfilament aggregation induced by withaferin A is mediated by annexin II” (Nat Chem Biol, 2006).
